Measurements: patent publication US11034700B2, “Substituted pyrrolidine compound and use thereof” (Takeda Pharmaceutical Company Limited, priority 2017, dated 2021)

molecular target: T1, human OX2 receptor (Homo sapiens, UniProt O43614); assay: Measurement of orexin type 2 receptor agonist activity (Fluo-4 calcium fluorescence, FDSS); type: cell-based; details: compound at 3 μM; CHO cells forcibly expressing human OX2 receptor; DMSO = 0%, orexin A (human) 10 nM = 100%
T1 construct: expressed in transfected cells
T1 sequence (O43614 1-444): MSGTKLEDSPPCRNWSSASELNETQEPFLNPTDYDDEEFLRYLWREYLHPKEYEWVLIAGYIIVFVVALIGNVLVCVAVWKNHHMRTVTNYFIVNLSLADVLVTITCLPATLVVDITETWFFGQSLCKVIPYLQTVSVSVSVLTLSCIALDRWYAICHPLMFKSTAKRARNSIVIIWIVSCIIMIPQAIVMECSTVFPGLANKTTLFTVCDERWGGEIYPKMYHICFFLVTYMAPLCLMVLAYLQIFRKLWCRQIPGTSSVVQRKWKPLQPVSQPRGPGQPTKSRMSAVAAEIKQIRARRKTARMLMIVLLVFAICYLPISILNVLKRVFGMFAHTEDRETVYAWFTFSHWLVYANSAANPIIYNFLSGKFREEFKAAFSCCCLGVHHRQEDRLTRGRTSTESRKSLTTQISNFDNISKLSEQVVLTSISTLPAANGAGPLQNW
Source text: Experimental Example 1: Obtainment of Cell Stably Expressing Human Orexin Type 2 Receptor (hOX2R)
To obtain a cell clone stably expressing human orexin type 2 receptor, human orexin type 2 receptor cDNA was inserted into pcDNA3.1(+) plasmid vector (Invitrogen), and a plasmid DNA for expression of human orexin type 2 receptor (pcDNA3.1(+)/hOX2R) was cloned. The plasmid DNA was introduced into CHO-dhfr cell by an electroporation method, and human orexin type 2 receptor expressing clone cells were obtained by limiting dilution method by using G418 drug resistance as a selection marker.
Experimental Example 2: Measurement of Orexin Type 2 Receptor Agonist Activity
CHO cells forcibly expressing human OX2 receptor were seeded in each well of 384 well black transparent bottom plate (BD Falcon) at 7,500 cells/well, and cultured for one day in a 5% CO2 incubator at 37° C. After removal of the medium in the cell plate, assay buffer A containing a calcium indicator (HESS (Life Technologies), 20 mM HEPES (Life Technologies), 0.1% BSA (Wako Pure Chemical Industries, Ltd.), 2.5 μg/mL Fluo-4 AM (DOJINDO Chemical), 0.08% Pluronic F127 (DOJINDO Chemical), 1.25 mM probenecid (DOJINDO Chemical)) was added at 30 μL/well. The plate was stood for 30 min in a 5% CO2 incubator at 37° C., and further stood at room temperature for 30 min. A test compound prepared by diluting with assay buffer B (HESS, 20 mM HEPES, 0.1% BSA) was added at 10 μL/well, and the fluorescence value was measured by FDSSμCELL (Hamamatsu Photonics K.K.) every one sec for 1 min, and thereafter every two sec for 1 min 40 sec. The activity (%) of the test compound was calculated assuming that variation in the fluorescence value when DMSO was added instead of the test compound was 0% […], and variation in the fluorescence value when orexin A (human) (PEPTIDE INSTITUTE, INC.) was added at the final concentration of 10 nM was 100% […]. The activity of each compound at the concentration of 3 μM was shown below.

| SMILES | OX2R agonist activity (3 μM, %) [%] |
| --- | --- |
| COc1ccc(-c2cccc(C(=O)N(C)C)c2)cc1S(=O)(=O)Nc1cccc(O[C@H]2CCN(C(=O)c3ccccc3C)C2)c1 [Example 7, 4′-methoxy-N,N-dimethyl-3′-((3-(((3S)-1-(2-methylbenzoyl)pyrrolidin-3-yl)oxy)phenyl)sulfamoyl)biphenyl-3-carboxamide] | 92 |
| COc1ccc(-c2cccc(C(=O)N(C)C)c2)cc1S(=O)(=O)Nc1cccc(O[C@H]2CCN(C(=O)c3ccccc3N(C)C)C2)c1 [Example 9, 3′-((3-(((3S)-1-(2-(dimethylamino)benzoyl)pyrrolidin-3-yl)oxy)phenyl)sulfamoyl)-4′-methoxy-N,N-dimethylbiphenyl-3-carboxamide] | 91 |
| COc1ccc(-c2cccc(C(=O)N(C)C)c2)cc1S(=O)(=O)Nc1cccc(O[C@H]2CCN(C(=O)c3c(C)cccc3C)C2)c1 [Example 10, 3′-((3-(((3S)-1-(2,6-dimethylbenzoyl)pyrrolidin-3-yl)oxy)phenyl)sulfamoyl)-4′-methoxy-N,N-dimethylbiphenyl-3-carboxamide] | 106 |
| COc1ccc(-c2cccc(C(=O)N(C)C)c2)cc1S(=O)(=O)Nc1cccc(O[C@H]2CCN(C(=O)c3cnn(C)c3-c3ccccc3)C2)c1 [Example 13, 4′-methoxy-N,N-dimethyl-3′-((3-(((3S)-1-((1-methyl-5-phenyl-1H-pyrazol-4-yl)carbonyl)pyrrolidin-3-yl)oxy)phenyl)sulfamoyl)biphenyl-3-carboxamide] | 97 |
| COc1ccc(-c2cccc(C(=O)N(C)C)c2)cc1S(=O)(=O)Nc1cccc(O[C@H]2CCN(C(=O)C3CCCCO3)C2)c1 (stereo partly drawn) [Example 14, 4′-methoxy-N,N-dimethyl-3′-((3-(((3S)-1-(tetrahydro-2H-pyran-2-ylcarbonyl)pyrrolidin-3-yl)oxy)phenyl)sulfamoyl)biphenyl-3-carboxamide] | 95 |
| COc1ccc(-c2cccc(C(=O)N(C)C)c2)cc1S(=O)(=O)Nc1cccc(O[C@H]2CCN(C(=O)C3(c4ccccc4)CC3)C2)c1 [Example 16, 4′-methoxy-N,N-dimethyl-3′-((3-(((3S)-1-((1-phenylcyclopropyl)carbonyl)pyrrolidin-3-yl)oxy)phenyl)sulfamoyl)biphenyl-3-carboxamide] | 99 |
| COc1ccccc1CC(=O)N1CC[C@H](Oc2cccc(NS(=O)(=O)c3cc(-c4cccc(C(=O)N(C)C)c4)ccc3OC)c2)C1 [Example 17, 4′-methoxy-3′-((3-(((3S)-1-((2-methoxyphenyl)acetyl)pyrrolidin-3-yl)oxy)phenyl)sulfamoyl)-N,N-dimethylbiphenyl-3-carboxamide] | 90 |
| COc1ccc(-c2cccc(C(=O)N(C)C)c2)cc1S(=O)(=O)Nc1cccc(O[C@H]2CCN(C(=O)c3cccnc3C(F)(F)F)C2)c1 [Example 23, 4′-methoxy-N,N-dimethyl-3′-((3-(((3S)-1-((2-(trifluoromethyl)pyridin-3-yl)carbonyl)pyrrolidin-3-yl)oxy)phenyl)sulfamoyl)biphenyl-3-carboxamide] | 88 |
| COc1ccc(-c2cccc(C(=O)N(C)C)c2)cc1S(=O)(=O)Nc1cccc(O[C@H]2CCN(C(=O)c3ccc(C)cc3C)C2)c1 [Example 25, 3′-((3-(((3S)-1-(2,4-dimethylbenzoyl)pyrrolidin-3-yl)oxy)phenyl)sulfamoyl)-4′-methoxy-N,N-dimethylbiphenyl-3-carboxamide] | 97 |
| COc1ccc(-c2cccc(C(=O)N(C)C)c2)cc1S(=O)(=O)Nc1cccc(O[C@H]2CCN(C(=O)c3cccc4c3OCC4)C2)c1 [Example 28, 3′-((3-(((3S)-1-(2,3-dihydro-1-benzofuran-7-ylcarbonyl)pyrrolidin-3-yl)oxy)phenyl)sulfamoyl)-4′-methoxy-N,N-dimethylbiphenyl-3-carboxamide] | 101 |
| COc1ccc(-c2cccc(C(=O)N(C)C)c2)cc1S(=O)(=O)Nc1cccc(O[C@H]2CCN(C(=O)c3cnn(C)c3C(F)(F)F)C2)c1 [Example 29, 4′-methoxy-N,N-dimethyl-3′-((3-(((3S)-1-((1-methyl-5-(trifluoromethyl)-1H-pyrazol-4-yl)carbonyl)pyrrolidin-3-yl)oxy)phenyl)sulfamoyl)biphenyl-3-carboxamide] | 98 |
| COc1ccc(N2CCCCC2=O)cc1S(=O)(=O)Nc1cccc(O[C@H]2CCN(C(=O)c3c(C)cccc3C)C2)c1 [Example 30, N-(3-(((3S)-1-(2,6-dimethylbenzoyl)pyrrolidin-3-yl)oxy)phenyl)-2-methoxy-5-(2-oxopiperidin-1-yl)benzenesulfonamide] | 89 |
| COc1ccc(N2CCOCC2)cc1S(=O)(=O)Nc1cccc(O[C@H]2CCN(C(=O)c3c(C)cccc3C)C2)c1 [Example 31, N-(3-(((3S)-1-(2,6-dimethylbenzoyl)pyrrolidin-3-yl)oxy)phenyl)-2-methoxy-5-(morpholin-4-yl)benzenesulfonamide] | 75 |
| COc1ccc(-c2cccc(C(=O)N(C)C)c2)cc1S(=O)(=O)Nc1cccc(O[C@H]2CCN(C(=O)c3cc(C)ccc3C)C2)c1 [Example 32, 3′-((3-(((3S)-1-(2,5-dimethylbenzoyl)pyrrolidin-3-yl)oxy)phenyl)sulfamoyl)-4′-methoxy-N,N-dimethylbiphenyl-3-carboxamide] | 92 |
| COc1ccc(C2CCCCN2C(C)=O)cc1S(=O)(=O)Nc1cccc(O[C@H]2CCN(C(=O)c3c(C)cccc3C)C2)c1 (stereo partly drawn) [Example 33, 5-(1-acetylpiperidin-2-yl)-N-(3-(((3S)-1-(2,6-dimethylbenzoyl)pyrrolidin-3-yl)oxy)phenyl)-2-methoxybenzenesulfonamide] | 89 |
| Cc1cccc(C)c1C(=O)N1CC[C@H](Oc2cccc(NS(=O)(=O)c3cccc(-c4cccc(C(=O)N(C)C)c4)c3)c2)C1 [Example 34, 3′-((3-(((3S)-1-(2,6-dimethylbenzoyl)pyrrolidin-3-yl)oxy)phenyl)sulfamoyl)-N,N-dimethylbiphenyl-3-carboxamide] | 94 |
| Cc1cccc(C)c1C(=O)N1CC[C@H](Oc2cccc(NS(=O)(=O)c3cc(-c4cccc(C(=O)N(C)C)c4)ccc3F)c2)C1 [Example 35, 3′-((3-(((3S)-1-(2,6-dimethylbenzoyl)pyrrolidin-3-yl)oxy)phenyl)sulfamoyl)-4′-fluoro-N,N-dimethylbiphenyl-3-carboxamide] | 99 |
| CCCS(=O)(=O)Nc1cccc(O[C@H]2CCN(C(=O)c3c(C)cccc3C)C2)c1 [Example 36, N-(3-(((3S)-1-(2,6-dimethylbenzoyl)pyrrolidin-3-yl)oxy)phenyl)propane-1-sulfonamide] | 23 |
| Cc1cccc(C)c1C(=O)N1CC[C@H](Oc2cccc(NS(=O)(=O)c3ccccc3Cl)c2)C1 [Example 37, 2-chloro-N-(3-(((3S)-1-(2,6-dimethylbenzoyl)pyrrolidin-3-yl)oxy)phenyl)benzenesulfonamide] | 35 |
| Cc1cccc(C)c1C(=O)N1CC[C@H](Oc2cccc(NS(=O)(=O)c3sccc3Cl)c2)C1 [Example 38, 3-chloro-N-(3-(((3S)-1-(2,6-dimethylbenzoyl)pyrrolidin-3-yl)oxy)phenyl)thiophene-2-sulfonamide] | 44 |
| COc1ccc(N2CCCC3(CCCCO3)C2)cc1S(=O)(=O)Nc1cccc(O[C@H]2CCN(C(=O)c3c(C)cccc3C)C2)c1 (stereo partly drawn) [Example 41, N-(3-(((3S)-1-(2,6-dimethylbenzoyl)pyrrolidin-3-yl)oxy)phenyl)-2-methoxy-5-(1-oxa-8-azaspiro[5.5]undec-8-yl)benzenesulfonamide] | 97 |
| COc1ccc(N2CCCC(C(=O)N3CCCC3)C2)cc1S(=O)(=O)Nc1cccc(O[C@H]2CCN(C(=O)c3c(C)cccc3C)C2)c1 (stereo partly drawn) [Example 42, N-(3-(((3S)-1-(2,6-dimethylbenzoyl)pyrrolidin-3-yl)oxy)phenyl)-2-methoxy-5-(3-(pyrrolidin-1-ylcarbonyl)piperidin-1-yl)benzenesulfonamide] | 97 |
